Data published in patent publication US20060034781A1, “PERORAL PREPARATION FOR PREVENTION OR TREATMENT OF ATOPIC DERMATATIS” (Kyowa Hakko Kogyo Co., Ltd., priority 2002, published 2006).

What was measured:
Type in all cases: in vivo
Settings in all cases: oral, in feed (0.25% N-acetyl-trans-4-hydroxy-L-proline or 0.5% trans-4-hydroxy-L-proline) versus control feed
NC/Nga mice = test: Suppression of auricular edema in DNCB-treated atopic dermatitis model mice
Procedure: (§1) For the test, NC/Nga mice (five weeks age; purchased from Charles River) were used. The breeding conditions were that the mice were bred under room temperature of 22±2° C. and humidity of 35±15% and that feed and water were freely taken by them.
(§2) The test feed was prepared by well mixing of powdery feed CE-2 (manufactured by Nippon Claire) with 0.25% by weight of N-acetyl-trans-4-hydroxy-L-proline or 0.50% by weight of trans-4-hydroxy-L-proline. The feed containing N-acetyl-trans-4-hydroxy-L-proline was named a feed 1 while the feed containing trans-4-hydroxy-L-proline was named a feed 2 and, as a control feed, a powdery feed CE-2 was used.
With regard to the hapten, a product prepared by dissolving 1.5% by weight of dinitrochlorobenzene (DNCB) in a solution comprising 20% by volume of olive oil and 80% by volume of acetone was used. […]
Starting from the day when application of the hapten started, thickness of the right auricle was measured using Pescock Dial Thickness Gauge (manufactured by Ozaki Seisakusho) one daily.
An increasing amount of auricular edema was calculated according to the following formula 1 as a relative value to an increasing amount of auricular edema of a mouse which was not treated with DNCB and the result is shown in Table 2. […]

IgE = IgE concentration in serum of atopic dermatitis model mice (ELISA)
Procedure: as §1, §2
(§3) With regard to the hapten, a product prepared by dissolving 1.5% by weight of dinitrochlorobenzene (DNCB) in a solution comprising 20% by volume of olive oil and 80% by volume of acetone was used.
(§4) Three mice were used for each of the test groups, and 20 μl of 1.5% DNCB was respectively applied onto both side of the right auricle of each of the mice after nine days, ten days, thirteen days and fourteen days from initiation of administration of the test feed.
With regard to the model mice where atopic dermatitis appeared used in Test Example 1, blood was collected from right thigh on the 27th day from initiation of administration of the test feed. […]

mast cells = test: Mast cell density at auricle of atopic dermatitis model mice (Toluidine Blue staining)
Procedure: as §1, §2, §3, §4
With regard to the model mice where atopic dermatitis appeared used in Test Example 1, tissues at auricle were frozen and embedded in Tissue-Tek O. C. T. Compound (manufactured by Sakura Seiki K. K.) on the 27th day from initiation of administration of the test feed. […]

SMILES	auricular edema induced by DNCB (result in words) (NC/Nga mice)	increase in IgE concentration in serum by application of DNCB (result in words) (IgE)	increase in mast cell density by application of DNCB (result in words) (mast cells)
CC(=O)N1C[C@H](O)C[C@H]1C(=O)O [N-acetyl-trans-4-hydroxy-L-proline]	apparently suppressed	significantly suppressed	apparently suppressed
O=C(O)[C@@H]1C[C@@H](O)CN1 [trans-4-hydroxy-L-proline]	apparently suppressed	significantly suppressed	apparently suppressed
